Values of other authors, collected in US12551486B2, “Rivaroxaban formulation” (Shanghai Auson Pharmaceuticals Co., Ltd., priority 2021, dated 2026).

Solubility in water: insoluble in water
SMILES: O=C(NC[C@H]1CN(c2ccc(N3CCOCC3=O)cc2)C(=O)O1)c1ccc(Cl)s1 [Rivaroxaban, 5-chloro-N-[[(5S)-2-oxo-3-[4-(3-oxomorpholin-4-yl)phenyl]-1,3-oxazolidin-5-yl]methyl]thiophene-2-carboxamide]
